Measurements taken from US10294227B2, “Compounds” (UNIVERSITY COURT OF THE UNIVERSITY OF EDINBURGH, priority 2015, dated 2019).
Where two headings read alike, the source gives them in different places.

Tests used:
[1] = biological target: KIT (Homo sapiens (Human), UniProt P10721); assay: Kinase screening assay (IC50)
[2] = biological target: LCK (Homo sapiens (Human), UniProt P06239); assay: Kinase screening assay (IC50)
[3] = rat, serum
[4] = biological target: CYP2D6 (Homo sapiens (Human), UniProt P10635); assay: CYP P450 inhibition
[5] = human, serum
[6] = biological target: CYP2C19 (Homo sapiens (Human), UniProt P33261); assay: CYP P450 inhibition
[7] = biological target: LYN (Homo sapiens (Human), UniProt P07948); assay: Kinase screening assay (IC50)
[8] = biological target: FYN (Homo sapiens (Human), UniProt P06241); assay: Kinase screening assay (IC50)
Sequence of FYN (P06241 whole entry): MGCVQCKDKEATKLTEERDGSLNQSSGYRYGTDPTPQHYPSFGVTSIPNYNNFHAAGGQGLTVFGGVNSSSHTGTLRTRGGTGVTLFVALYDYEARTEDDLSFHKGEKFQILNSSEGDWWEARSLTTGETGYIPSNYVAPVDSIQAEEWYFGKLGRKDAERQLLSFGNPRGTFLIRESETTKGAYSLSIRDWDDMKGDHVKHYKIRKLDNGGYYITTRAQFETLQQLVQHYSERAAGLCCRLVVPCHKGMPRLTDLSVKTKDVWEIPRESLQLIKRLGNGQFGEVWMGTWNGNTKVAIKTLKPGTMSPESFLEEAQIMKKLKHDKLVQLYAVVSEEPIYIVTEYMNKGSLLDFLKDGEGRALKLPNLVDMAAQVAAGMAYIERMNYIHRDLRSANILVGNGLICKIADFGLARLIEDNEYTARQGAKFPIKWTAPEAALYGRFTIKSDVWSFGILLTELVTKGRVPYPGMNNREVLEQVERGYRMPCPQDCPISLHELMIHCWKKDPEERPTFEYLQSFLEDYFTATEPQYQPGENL

[9] = biological target: CYP1A2 (Homo sapiens (Human), UniProt P05177); assay: in vitro
[10] = biological target: HCK (Homo sapiens (Human), UniProt P08631); assay: Kinase screening assay (IC50)
Sequence of HCK (P08631 whole entry): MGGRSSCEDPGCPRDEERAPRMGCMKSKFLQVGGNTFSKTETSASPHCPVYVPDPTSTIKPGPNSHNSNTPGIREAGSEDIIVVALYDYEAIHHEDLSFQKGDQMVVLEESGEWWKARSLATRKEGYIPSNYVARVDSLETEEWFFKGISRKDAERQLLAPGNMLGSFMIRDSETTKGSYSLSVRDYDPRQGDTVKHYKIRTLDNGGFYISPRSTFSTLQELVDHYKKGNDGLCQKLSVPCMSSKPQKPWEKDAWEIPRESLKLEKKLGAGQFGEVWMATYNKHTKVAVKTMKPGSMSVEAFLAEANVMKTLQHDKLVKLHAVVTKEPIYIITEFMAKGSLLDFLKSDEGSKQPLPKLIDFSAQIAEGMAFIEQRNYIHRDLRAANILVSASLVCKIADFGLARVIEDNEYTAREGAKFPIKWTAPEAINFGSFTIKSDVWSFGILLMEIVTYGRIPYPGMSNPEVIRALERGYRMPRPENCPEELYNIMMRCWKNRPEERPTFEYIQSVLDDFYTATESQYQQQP

[11] = biological target: CYP3A4 (Homo sapiens (Human), UniProt P08684); assay: CYP P450 inhibition
[12] = biological target: CYP2C9 (Homo sapiens (Human), UniProt P11712); assay: CYP P450 inhibition
[13] = biological target: PDGFRa (Homo sapiens (Human), UniProt P16234); assay: Kinase screening assay (IC50); format: biochemical
[14] = biological target: FRK/PTK5 (Homo sapiens (Human), UniProt P42685); assay: Kinase screening assay (IC50)
Sequence of FRK/PTK5 (P42685 whole entry): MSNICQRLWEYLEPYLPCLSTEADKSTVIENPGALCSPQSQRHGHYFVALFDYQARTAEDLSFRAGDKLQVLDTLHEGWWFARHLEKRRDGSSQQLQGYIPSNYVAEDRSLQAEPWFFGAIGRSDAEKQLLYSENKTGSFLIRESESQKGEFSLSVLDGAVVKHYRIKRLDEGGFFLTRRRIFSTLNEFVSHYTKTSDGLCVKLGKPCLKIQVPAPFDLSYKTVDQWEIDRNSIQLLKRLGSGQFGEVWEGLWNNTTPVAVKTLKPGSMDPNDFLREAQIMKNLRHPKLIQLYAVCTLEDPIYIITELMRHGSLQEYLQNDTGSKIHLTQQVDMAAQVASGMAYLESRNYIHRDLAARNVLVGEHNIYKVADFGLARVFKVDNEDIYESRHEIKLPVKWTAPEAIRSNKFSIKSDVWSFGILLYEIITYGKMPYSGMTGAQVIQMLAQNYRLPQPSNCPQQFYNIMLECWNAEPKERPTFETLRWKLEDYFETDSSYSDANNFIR

[15] = biological target: hERG channel (Homo sapiens (Human), UniProt Q12809); assay: hERG Safety Assay, Ionworks high-throughput electrophysiology
Sequence of hERG channel (Q12809 whole entry): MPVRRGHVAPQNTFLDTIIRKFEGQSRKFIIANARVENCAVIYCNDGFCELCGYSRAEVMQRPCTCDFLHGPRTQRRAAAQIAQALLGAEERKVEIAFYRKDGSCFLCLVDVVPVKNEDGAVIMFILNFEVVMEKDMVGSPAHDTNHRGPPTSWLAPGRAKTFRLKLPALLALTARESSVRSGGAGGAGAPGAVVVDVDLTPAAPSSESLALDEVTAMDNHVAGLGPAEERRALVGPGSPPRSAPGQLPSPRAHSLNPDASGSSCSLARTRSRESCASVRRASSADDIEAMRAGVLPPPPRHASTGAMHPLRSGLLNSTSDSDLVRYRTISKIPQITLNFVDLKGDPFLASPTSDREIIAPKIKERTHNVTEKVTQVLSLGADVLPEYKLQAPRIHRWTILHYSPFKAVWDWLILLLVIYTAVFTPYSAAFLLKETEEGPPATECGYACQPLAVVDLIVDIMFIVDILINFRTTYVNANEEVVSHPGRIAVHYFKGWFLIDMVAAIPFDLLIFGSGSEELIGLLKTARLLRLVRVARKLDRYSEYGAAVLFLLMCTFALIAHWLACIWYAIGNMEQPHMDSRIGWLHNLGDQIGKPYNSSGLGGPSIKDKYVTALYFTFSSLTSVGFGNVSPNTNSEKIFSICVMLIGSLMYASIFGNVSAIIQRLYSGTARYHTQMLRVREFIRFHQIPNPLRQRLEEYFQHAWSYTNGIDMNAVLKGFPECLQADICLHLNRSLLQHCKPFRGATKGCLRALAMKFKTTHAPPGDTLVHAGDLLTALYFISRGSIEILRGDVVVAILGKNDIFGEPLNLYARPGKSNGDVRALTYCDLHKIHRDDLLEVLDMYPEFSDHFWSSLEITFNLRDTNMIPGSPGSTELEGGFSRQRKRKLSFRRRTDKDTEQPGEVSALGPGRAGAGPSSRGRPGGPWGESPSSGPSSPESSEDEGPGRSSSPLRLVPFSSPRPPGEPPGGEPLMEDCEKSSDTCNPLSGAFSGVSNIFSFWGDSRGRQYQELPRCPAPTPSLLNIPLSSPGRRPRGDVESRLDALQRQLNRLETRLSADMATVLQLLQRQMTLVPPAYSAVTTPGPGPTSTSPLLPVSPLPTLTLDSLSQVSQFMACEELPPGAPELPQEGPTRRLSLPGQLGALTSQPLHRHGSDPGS

[16] = biological target: FGR (Homo sapiens (Human), UniProt P09769); assay: Kinase screening assay (IC50)
Sequence of FGR (P09769 whole entry): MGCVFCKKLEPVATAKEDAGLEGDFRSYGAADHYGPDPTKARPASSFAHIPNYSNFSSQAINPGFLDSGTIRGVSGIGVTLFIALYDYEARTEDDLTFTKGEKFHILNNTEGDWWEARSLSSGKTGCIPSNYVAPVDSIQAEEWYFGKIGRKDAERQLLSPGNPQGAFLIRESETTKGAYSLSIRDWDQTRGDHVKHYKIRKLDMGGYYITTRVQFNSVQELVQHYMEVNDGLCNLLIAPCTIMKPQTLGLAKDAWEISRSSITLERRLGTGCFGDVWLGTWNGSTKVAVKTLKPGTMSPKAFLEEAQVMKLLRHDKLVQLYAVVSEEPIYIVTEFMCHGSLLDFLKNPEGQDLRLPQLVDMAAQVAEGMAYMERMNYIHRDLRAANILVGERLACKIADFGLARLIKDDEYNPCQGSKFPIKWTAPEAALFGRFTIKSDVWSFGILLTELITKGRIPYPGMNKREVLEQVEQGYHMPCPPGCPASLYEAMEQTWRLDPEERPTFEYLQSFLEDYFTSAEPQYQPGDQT

[17] = biological target: RET (Homo sapiens (Human), UniProt P07949); assay: Kinase screening assay (IC50)
[18] = biological target: mTOR (Homo sapiens (Human), UniProt P42345); assay: Kinase screening assay (IC50); format: biochemical
[19] = biological target: BLK (Homo sapiens (Human), UniProt P51451); assay: Kinase screening assay (IC50)
Sequence of BLK (P51451 whole entry): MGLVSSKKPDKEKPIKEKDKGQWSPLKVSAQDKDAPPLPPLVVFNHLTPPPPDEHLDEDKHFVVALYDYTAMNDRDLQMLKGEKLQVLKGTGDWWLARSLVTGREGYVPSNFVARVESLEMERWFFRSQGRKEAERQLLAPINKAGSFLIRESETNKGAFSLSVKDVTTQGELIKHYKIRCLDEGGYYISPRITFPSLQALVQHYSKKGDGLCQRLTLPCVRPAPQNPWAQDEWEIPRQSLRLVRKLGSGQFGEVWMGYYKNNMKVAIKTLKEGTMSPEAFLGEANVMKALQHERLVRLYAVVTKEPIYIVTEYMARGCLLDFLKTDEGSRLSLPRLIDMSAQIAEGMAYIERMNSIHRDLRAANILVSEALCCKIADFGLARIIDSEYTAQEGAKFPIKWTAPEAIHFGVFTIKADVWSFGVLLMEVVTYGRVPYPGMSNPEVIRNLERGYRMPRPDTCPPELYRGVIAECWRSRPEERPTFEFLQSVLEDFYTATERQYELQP

[20] = PBS, aqueous buffer
[21] = biological target: ABL (Homo sapiens (Human), UniProt P00519); assay: Kinase screening assay (IC50); format: biochemical
[22] = biological target: YES (Homo sapiens (Human), UniProt P07947); assay: Kinase screening assay (IC50)
[23] = biological target: SRC (Homo sapiens (Human), UniProt P12931); assay: Kinase screening assay (IC50); format: biochemical; conditions: for IC50: 10 μM ATP, read-out: Target inhibition (IC50) SRC
[24] = Stability in human plasma; format: in vitro ADME; conditions: % of unmodified drug after 120 min in plasma
[25] = Stability in mouse plasma; format: in vitro ADME; conditions: % of unmodified drug after 120 min in plasma
[26] = Liver microsome stability; format: in vitro ADME; conditions: % of unmodified drug after 30 min incubation with liver microsomes
[27] = system: MDA-MB-231 cells; assay: Cell viability assay (PrestoBlue); format: cell-based; conditions: Homo sapiens, MDA-MB-231, 120 h, read-out: Antiproliferative activity (EC50) MDA-MB-231; cell viability at day 5
[28] = system: MCF7 cells; assay: Cell viability assay (PrestoBlue); format: cell-based; conditions: Homo sapiens, MCF7, 120 h; cell viability at day 5; read-out: Antiproliferative activity (EC50) MCF7
[29] = system: SYF fibroblasts (deficient for Src, Yes, and Fyn); assay: Cell viability assay (PrestoBlue); format: cell-based, murine; conditions: Mus musculus, Fibroblast, 120 h; cell viability at day 5; read-out: Antiproliferative activity (EC50) SYF (−/− Src)
[30] = Stability in rat plasma; conditions: % of unmodified drug after 120 min in plasma
[31] = read-out: Kinase Screening (IC50) c-KIT
[32] = read-out: Target inhibition (IC50) KIT, 10 μM ATP
[33] = read-out: Kinase Screening (IC50) LCK, Src Family
[34] = read-out: Target inhibition (IC50) LCK, 10 μM ATP
[35] = read-out: Kinase Screening (IC50) LYN, Src Family
[36] = read-out: Target inhibition (IC50) LYN, 10 μM ATP
[37] = read-out: Kinase Screening (IC50) FYN, Src Family
[38] = read-out: Target inhibition (IC50) FYN, 10 μM ATP
[39] = read-out: Kinase Screening (IC50) HCK, Src Family
[40] = read-out: Target inhibition (IC50) HCK, 10 μM ATP
[41] = 10 μM ATP, read-out: Target inhibition (IC50) PDGFRa
[42] = read-out: Kinase Screening (IC50) PDGFRa
[43] = read-out: Kinase Screening (IC50) FRK, Src Family
[44] = read-out: Target inhibition (IC50) FRK/PTK5, 10 μM ATP
[45] = read-out: Kinase Screening (IC50) FGR, Src Family
[46] = read-out: Target inhibition (IC50) FGR, 10 μM ATP
[47] = read-out: Kinase Screening (IC50) RET
[48] = read-out: Target inhibition (IC50) RET, 10 μM ATP
[49] = 10 μM ATP, read-out: Target inhibition (IC50) mTOR
[50] = read-out: Kinase Screening (IC50) mTOR
[51] = read-out: Kinase Screening (IC50) BLK, Src Family
[52] = read-out: Target inhibition (IC50) BLK, 10 μM ATP
[53] = 10 μM ATP, read-out: Target inhibition (IC50) ABL
[54] = read-out: Target inhibition (IC50) YES, 10 μM ATP

Sequence of KIT (P10721 26-976): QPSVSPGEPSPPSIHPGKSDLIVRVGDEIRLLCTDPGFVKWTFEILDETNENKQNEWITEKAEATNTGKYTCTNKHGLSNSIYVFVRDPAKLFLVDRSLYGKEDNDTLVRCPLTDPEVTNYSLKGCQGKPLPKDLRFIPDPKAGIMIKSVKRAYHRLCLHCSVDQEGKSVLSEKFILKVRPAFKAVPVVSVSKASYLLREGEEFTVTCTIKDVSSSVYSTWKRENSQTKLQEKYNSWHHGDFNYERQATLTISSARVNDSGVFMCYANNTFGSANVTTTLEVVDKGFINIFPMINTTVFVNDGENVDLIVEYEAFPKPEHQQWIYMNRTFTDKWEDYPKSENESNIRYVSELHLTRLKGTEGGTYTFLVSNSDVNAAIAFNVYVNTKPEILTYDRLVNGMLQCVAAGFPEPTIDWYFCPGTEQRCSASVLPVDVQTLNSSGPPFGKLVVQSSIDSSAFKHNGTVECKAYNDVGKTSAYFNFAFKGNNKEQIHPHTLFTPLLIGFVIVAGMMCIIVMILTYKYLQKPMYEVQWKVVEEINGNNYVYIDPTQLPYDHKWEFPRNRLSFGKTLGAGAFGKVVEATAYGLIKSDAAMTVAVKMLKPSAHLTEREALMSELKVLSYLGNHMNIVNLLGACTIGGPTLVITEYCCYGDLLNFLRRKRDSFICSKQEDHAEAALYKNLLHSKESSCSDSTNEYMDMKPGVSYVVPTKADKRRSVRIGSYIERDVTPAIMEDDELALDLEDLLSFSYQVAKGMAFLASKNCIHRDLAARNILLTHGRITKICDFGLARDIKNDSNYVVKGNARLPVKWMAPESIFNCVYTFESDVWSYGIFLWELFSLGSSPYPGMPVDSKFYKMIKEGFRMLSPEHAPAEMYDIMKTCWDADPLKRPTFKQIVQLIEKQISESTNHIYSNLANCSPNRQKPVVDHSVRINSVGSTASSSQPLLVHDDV

Row | Compound | IC50 [1, 31] | IC50 [1, 32] | IC50 [2, 33] | IC50 [2, 34] | fraction unbound [5] | IC50 [7, 35] | IC50 [7, 36] | IC50 [8, 37] | IC50 [8, 38] | IC50 [10, 40] | IC50 [13, 41] | IC50 [13, 42] | IC50 [14, 44] | IC50 [15] | IC50 [16, 45] | IC50 [16, 46] | IC50 [17, 47] | IC50 [17, 48] | IC50 [18, 49] | IC50 [22, 54] | other results
1 | COc1cc(-c2nn(CCN3CCC(N4CCCCC4)CC3)c3ncnc(N)c23)ccc1NC(=O)OC(C)(C)C [Compound 519, tert-butyl N-[4-[4-amino-1-[2-[4-(1-piperidyl)-1-piperidyl]ethyl]pyrazolo[3,4-d]pyrimidin-3-yl]-2-methoxy-phenyl]carbamate] | > 1000 nM | > 1000 nM | < 10 nM | < 10 nM | 0.143 | < 10 nM | < 10 nM | < 10 nM | < 10 nM | < 10 nM | > 1000 nM | > 1000 nM | < 10 nM | 12600 nM | < 10 nM | < 10 nM | > 1000 nM | > 1000 nM | > 1000 nM |  | fraction unbound [3]: 0.106; inhibition at 10 µM [4]: 3%; inhibition at 10 µM [6]: -3.1%; inhibition at 10 µM [9]: -1.6%; IC50 [10, 39]: < 10 nM; inhibition at 10 µM [11]: -12.1%; inhibition at 10 µM [12]: -70.3%; IC50 [14, 43]: < 10 nM; IC50 [18, 50]: > 1000 nM; IC50 [19, 51]: < 10 nM; IC50 [19, 52]: < 10 nM
2 | Cc1nc(Nc2ncc(C(=O)Nc3c(C)cccc3Cl)s2)cc(N2CCN(CCO)CC2)n1 [Dasatinib, reference compound] |  |  |  |  | 0.06 |  |  |  |  |  |  |  |  |  |  |  |  |  |  |  | solubility [20]: < 100 µg/mL
3 | COc1cc(-c2nn(CCN3CCC(CN(C)C)CC3)c3ncnc(N)c23)ccc1NC(=O)OC(C)(C)C [Compound 503, tert-butyl N-[4-[4-amino-1-[2-[4-(dimethylaminomethyl)-1-piperidyl]ethyl]pyrazolo[3,4-d]pyrimidin-3-yl]-2-methoxy-phenyl]carbamate] |  | > 1000 nM |  | < 10 nM |  |  | < 10 nM |  | < 10 nM | < 10 nM | > 1000 nM |  | < 10 nM |  |  | < 10 nM |  | > 1000 nM | > 1000 nM | < 10 nM | IC50 [21, 53]: 100 to 1000 nM; IC50 ([21]; recombinant kinase, read-out: IC50 Abl): 189 nM; IC50 [1]: 7130 nM; IC50 [22]: < 0.5 nM; potency (IC50) against Yes, in words [22]: sub-nano molar; IC50 [8]: 4.6 nM; IC50 ([13]; recombinant kinase, read-out: IC50 PDGFRα): > 10000 nM; potency (IC50) against Src, in words [23]: sub-nano molar; IC50 [23]: < 10 nM; IC50 [17]: > 10000 nM; IC50 ([18]; recombinant kinase, read-out: IC50 mTOR): > 10000 nM; IC50 [19, 52]: < 10 nM
4 | CC1CC(OC(=O)C(O)c2ccccc2)CC(C)(C)N1C (centres unmarked) [Eucatropine, reference compound] |  |  |  |  |  |  |  |  |  |  |  |  |  |  |  |  |  |  |  |  | Stability in human plasma [24]: 10.5%; Stability in mouse plasma [25]: 20.3%
5 | COc1cc(-c2nn(CCN3CCC(N4CCCC4)CC3)c3ncnc(N)c23)ccc1NC(=O)OC(C)(C)C [Compound 518, tert-butyl N-[4-[4-amino-1-[2-(4-pyrrolidin-1-yl-1-piperidyl)ethyl]pyrazolo[3,4-d]pyrimidin-3-yl]-2-methoxy-phenyl]carbamate] | > 1000 nM | > 1000 nM | < 10 nM | < 10 nM | 0.172 | < 10 nM | < 10 nM | < 10 nM | < 10 nM | < 10 nM | > 1000 nM | > 1000 nM | < 10 nM | 20100 nM | < 10 nM | < 10 nM | > 1000 nM | > 1000 nM | > 1000 nM | < 10 nM | fraction unbound [3]: 0.134; inhibition at 10 µM [4]: 6.7%; inhibition at 10 µM [6]: -6.5%; IC50 ([22]; read-out: Kinase Screening (IC50) YES, Src Family): < 10 nM; inhibition at 10 µM [9]: 6.9%; 30 min Liver Microsome stability [26]: 87.0%; IC50 [10, 39]: < 10 nM; inhibition at 10 µM [11]: -29.8%; inhibition at 10 µM [12]: -92.3%; IC50 [14, 43]: < 10 nM; IC50 [18, 50]: > 1000 nM; IC50 [19, 51]: < 10 nM; IC50 [19, 52]: < 10 nM
6 | COc1cc(-c2nn(CCN3CCC(N(C)C)CC3)c3ncnc(N)c23)ccc1N [Compound 532, 3-(4-amino-3-methoxy-phenyl)-1-[2-[4-(dimethylamino)-1-piperidyl]ethyl]pyrazolo[3,4-d]pyrimidin-4-amine] |  |  |  |  |  |  |  |  |  |  |  |  |  |  |  |  |  |  |  |  | EC50 [27]: 1000 to 10000 nM; EC50 [28]: 1000 to 10000 nM; EC50 [29]: > 10000 nM
7 | CN(C)C1CCN(CCn2nc(-c3ccc(CC(=O)OC(C)(C)C)cc3)c3c(N)ncnc32)CC1 [Compound 553, tert-butyl 2-[4-[4-amino-1-[2-[4-(dimethylamino)-1-piperidyl]ethyl]pyrazolo[3,4-d]pyrimidin-3-yl]phenyl]acetate] | > 1000 nM | > 1000 nM | < 10 nM | < 10 nM |  | < 10 nM | < 10 nM | < 10 nM | < 10 nM |  | > 1000 nM | > 1000 nM |  | 12600 nM | < 10 nM | < 10 nM | > 1000 nM | > 1000 nM | > 1000 nM |  | Stability in rat plasma [30]: 68.2%; Stability in human plasma [24]: 98.3%; Stability in mouse plasma [25]: 70.4%; IC50 [18, 50]: > 1000 nM
8 | COc1cc(-c2nn(CCN3CCC(N(C)C)CC3)c3ncnc(N)c23)ccc1Cc1ncc(C)o1 [Compound 584, 1-[2-[4-(dimethylamino)-1-piperidyl]ethyl]-3-[3-methoxy-4-[(5-methyloxazol-2-yl)methyl]phenyl]pyrazolo[3,4-d]pyrimidin-4-amine] |  | > 1000 nM |  | < 10 nM |  |  |  |  |  |  | > 1000 nM |  |  |  |  | < 10 nM |  | > 1000 nM | > 1000 nM | < 10 nM | IC50 [21, 53]: > 1000 nM; IC50 [8]: 100 to 1000 nM; IC50 [23]: 10 to 100 nM
9 | CN(C)C1CCN(CCn2nc(-c3ccc(NC(=O)OC(C)(C)C)cc3)c3c(N)ncnc32)CC1 [Compound 543] |  | > 1000 nM |  |  |  |  |  |  |  |  | > 1000 nM |  |  |  |  | < 10 nM |  | > 1000 nM | > 1000 nM | < 10 nM | IC50 [21, 53]: > 1000 nM; IC50 [2]: 10 to 100 nM; IC50 [8]: 100 to 1000 nM; IC50 [23]: 10 to 100 nM
10 | COc1ccc([C@@H]2Sc3ccccc3N(CCN(C)C)C(=O)[C@@H]2OC(C)=O)cc1 [Diltiazem, reference compound] |  |  |  |  |  |  |  |  |  |  |  |  |  |  |  |  |  |  |  |  | Stability in rat plasma [30]: 21.5%
